# Assay results: US11707440B2 (priority 2017, dated 2023)
# Read-outs that look alike come from different tables or passages of the source. Marks after values point to notes of the source that are not given here.
# What was measured:
# [1] = for Stock solution stability: stock solutions
# Description: This example provides an LC-MS/MS method for the determination of ketamine and norketamine in sodium heparin human plasma using ketamine-d4 and norketamine-d4 as the respective internal standards (IS).
# [2] = Pharmacokinetics of intranasal esketamine in healthy subjects (Example 9); details: for Metabolite/Parent Ratio AUClast / Metabolite/Parent Ratio AUC∞ / Metabolite/Parent Ratio tmax / AUClast / AUC∞ / Cmax / t1/2: mean; for tmax: median
# Experimental: Pharmacokinetic blood samples for measurement of esketamine and noresketamine concentrations in plasma were collected from predose until up to 24 hours after each intranasal esketamine regimen on Day 1 of each period.
# Blood samples (4 mL each) for determination of esketamine and noresketamine plasma concentrations were collected into the appropriate collection tube (e.g., Vacutainer®) at timepoints 0.00, 0.12, 0.20, 0.37, 0.53, 0.67, 0.83, 1.00, 1.25, 1.50, 2.00, 3.00, 4.00, 6.00, 9.00, 12.00, 18.00, and 24.00 h. The total amount of blood to be drawn for clinical laboratory tests and PK evaluations is approximately 327 mL.
# Plasma samples were analyzed for esketamine and noresketamine concentrations using the validated, specific and sensitive liquid chromatography coupled to tandem mass spectrometry (LC-MS/MS) achiral method of Example 8.
# Serial PK blood samples (4 mL each) were collected for a 24-hour period from each subject (Periods 1, 2, and 3). […] Statistical Methods 1.6.4.1. Sample Size
# The following key parameters of esketamine and noresketamine in plasma were calculated using noncompartmental methods and actual sampling times: Cmax, tmax, AUClast, AUC∞, t1/2,λ, and λz.
# MDD/TRD subjects = details: 52-week safety study in MDD/TRD subjects (Berman et al., 2011); cited from earlier work
# [3] = after A: Esketamine 28 mg intranasal
# [4] = after B: Esketamine 56 mg intranasal
# [5] = after C: Esketamine 84 mg intranasal
# [6] = healthy subjects, 28, 56 and 84 mg
# [7] = metabolite after A: Esketamine 28 mg intranasal
# [8] = metabolite after B: Esketamine 56 mg intranasal
# [9] = metabolite after C: Esketamine 84 mg intranasal
smiles,measurement,setting,value
CN[C@]1(c2ccccc2Cl)CCCCC1=O [5-Ketamine],QC sample long-term storage stability,"[1]; human plasma, −20° C.",707 days at −20 °C
NC1(c2ccccc2Cl)CCCCC1=O (stereo not drawn) [Norketamine],QC sample freeze/thaw stability,[1]; freeze (−20° C.)/thaw (ice-water bath),3 freeze (−20° C.)/thaw (ice-water bath) cycles
same,QC sample freeze/thaw stability,[1]; freeze (−20° C.)/thaw (room temperature),3 freeze (−20° C.)/thaw (room temperature) cycles
same,QC sample bench-top stability,"[1]; human plasma, room temperature",68.5 hours at room temp
same,QC sample long-term storage stability,"[1]; human plasma, −20° C.",1552 days at −20 °C
same,Processed sample stability,[1]; room temperature,146.5 hours at room temperature
same,Whole Blood Stability,[1]; room temperature and ice-water bath (0-4° C.),120 minutes at room temperature and in an ice-water bath
same,Stock solution stability (spike solutions),"[1]; spike solutions, −20° C.",610 days at −20 °C for ketamine/norketamine spike solutions
same,Stock solution stability,[1]; room temperature under white light,6 h
same,Stock solution stability,[1]; −20° C.,15100 h
N[C@]1(c2ccccc2Cl)CCCCC1=O [noresketamine],Metabolite/Parent Ratio AUClast,[2]; [3],3.62
same,Metabolite/Parent Ratio AUC∞,[2]; [3],3.80^b
same,Metabolite/Parent Ratio tmax,[2]; [3],1.96 h
same,Metabolite/Parent Ratio AUClast,[2]; [4],4.07
same,Metabolite/Parent Ratio AUC∞,[2]; [4],4.22^b
same,Metabolite/Parent Ratio tmax,[2]; [4],2.28 h
same,Metabolite/Parent Ratio AUClast,[2]; [5],4.32
same,Metabolite/Parent Ratio AUC∞,[2]; [5],4.46^d
same,Metabolite/Parent Ratio tmax,[2]; [5],2.55 h
same,"AUC (AUClast and AUC∞) variability, range",[2]; [6],17.0% to 21.3
same,"AUClast, mean ratio of noresketamine to esketamine, range",[2]; [6],3.62 to 4.32
same,"AUC∞, mean ratio of noresketamine to esketamine, range",[2]; [6],3.80 to 4.46
same,"Cmax variability (percent coefficient of variation), range across treatment groups",[2]; [6],25.8% to 33.7
same,"Cmax, mean ratio of noresketamine to esketamine, range",[2]; [6],1.96 to 2.55
same,"Mean t1/2, range",[2]; [6],7.48 to 7.74 h
same,"Median tmax, range across the 3 intranasal regimens","[2]; healthy subjects, 28, 56 and 84 mg intranasal esketamine",1.25 to 1.5 h
same,AUClast,[2]; [7],454 ng·h/mL
same,AUC∞,[2]; [7],508^ h * ng/mL
same,Cmax,[2]; [7],92.8 ng/mL
same,t1/2,[2]; [7],7.74 h
same,tmax,[2]; [7],1.25 h
same,AUClast,[2]; [8],851 ng·h/mL
same,AUC∞,[2]; [8],924^c h * ng/mL
same,Cmax,[2]; [8],154 ng/mL
same,t1/2,[2]; [8],7.71^c h
same,tmax,[2]; [8],1.50 h
same,AUClast,[2]; [9],1287 ng·h/mL
same,AUC∞,[2]; [9],1392^b h * ng/mL
same,Cmax,[2]; [9],241 ng/mL
same,t1/2,[2]; [9],7.48^b h
same,tmax,[2]; [9],1.50 h
OCCOCCN1CCN(C2=Nc3ccccc3Sc3ccccc32)CC1 [quetiapine],Discontinuation rate due to adverse events,MDD/TRD subjects,23.7%
